Key:
[1] = test system: NADH oxidase of HeLa plasma membranes; settings: background statement; cited from earlier work
[2] = test system: NADH oxidase of HeLa plasma membranes; test: NADH oxidase activity of HeLa S plasma membranes; type: biochemical, human; settings: 37° C.
Procedure: (§1) Spectrophotometric tNOX Assay. NADH oxidase activity was determined as the disappearance of NADH measured at 340 nm with 430 nm as reference using an SLM Aminco (Lake Forest, Calif.) DW-2000 spectrophotometer in the dual wavelength mode of operation or a Hitachi (Tokyo, Japan) U3210 spectrophotometer at 340 nm with continuous recording over 5 or 10 min intervals once steady-state rates were obtained. The reaction mixture contained 50 mM Tris-Mes buffer (pH 7.0), 2 mM KCN to inhibit any potential mitochondrial oxidase activity, and 150 μM NADH in a total volume of 2.5 ml. Assay was at 37° C. with constant stirring. With purified fractions, 1 μM reduced glutathione was added to reduce the protein in the presence of substrate and human serum albumin, 0.1 mg/ml, as a protein source of thiols. After 10 min, 0.03% hydrogenperoxide was added (or oxidized glutathione) to reoxidize the protein under renaturing conditions and in the presence of substrate to start the reaction. A millimolar extinction coefficient of 6.22 was used to determine NADH disappearance. To determine capsaicin inhibition, capsaicin in DMSO was added to a final concentration of 1 μM (0.1% DMSO) and the rate of NADH oxidation determined over 10 min. Capsaicin at a final concentration of 100 μM (0.2% DMSO) was then added and the assay was continued for an additional 10 min.

tNOX [3] = test: Immunoprecipitation of tNOX with MAB 12.1, supernatant activity assayed; type: biochemical, human; settings: Preimmune
Procedure: Spectrophotometric tNOX Assay. NADH oxidase activity was determined as the disappearance of NADH measured at 340 nm with 430 nm as reference using an SLM Aminco (Lake Forest, Calif.) DW-2000 spectrophotometer in the dual wavelength mode of operation or a Hitachi (Tokyo, Japan) U3210 spectrophotometer at 340 nm with continuous recording over 5 or 10 min intervals once steady-state rates were obtained. The reaction mixture contained 50 mM Tris-Mes buffer (pH 7.0), 2 mM KCN to inhibit any potential mitochondrial oxidase activity, and 150 μM NADH in a total volume of 2.5 ml. Assay was at 37° C. with constant stirring. With purified fractions, 1 μM reduced glutathione was added to reduce the protein in the presence of substrate and human serum albumin, 0.1 mg/ml, as a protein source of thiols. After 10 min, 0.03% hydrogenperoxide was added (or oxidized glutathione) to reoxidize the protein under renaturing conditions and in the presence of substrate to start the reaction. A millimolar extinction coefficient of 6.22 was used to determine NADH disappearance. To determine capsaicin inhibition, capsaicin in DMSO was added to a final concentration of 1 μM (0.1% DMSO) and the rate of NADH oxidation determined over 10 min. Capsaicin at a final concentration of 100 μM (0.2% DMSO) was then added and the assay was continued for an additional 10 min. Immunoprecipitation. […]

tNOX [4] = test: NADH oxidase (NOX) activity of pooled sera of cancer patients; type: biochemical, human; settings: no MAB
Procedure: (§2) Pooled sera. Pooled sera were collected from the patient population of the Michiana Hematology-Oncology Clinic, South Bend, Ind. and from the patient population of St. Elizabeth Hospital of Lafayette, Ind. Only cancer patients with active disease (Stage III or Stage IV) were identified at the time of collections. Sera were frozen after collection and stored frozen at −20° C. Prior to assay, samples were thawed and maintained at 4° C. between thawing and assay.
Spectrophotometric tNOX Assay. NADH oxidase activity was determined as the disappearance of NADH measured at 340 nm with 430 nm as reference using an SLM Aminco (Lake Forest, Calif.) DW-2000 spectrophotometer in the dual wavelength mode of operation or a Hitachi (Tokyo, Japan) U3210 spectrophotometer at 340 nm with continuous recording over 5 or 10 min intervals once steady-state rates were obtained. […] To determine capsaicin inhibition, capsaicin in DMSO was added to a final concentration of 1 μM (0.1% DMSO) and the rate of NADH oxidation determined over 10 min. […]
(§3) NADH oxidase activity can also be measured using an Hitachi (Tokyo, Japan) U3210 spectrophotometer over 5 min intervals at 37° C. The activity was determined as the disappearance of NADH measured at 340 nm. […]

tTIP [5] = test: tTIP activity of sera of cancer patients, dithio-dipyridyl substrate; type: biochemical, human; settings: Breast CA sera, without MAB 12.1
Excerpt: An alternative assay procedure is the use of a dithio-dipyridyl substrate as described in Morré et al. (1999) Mol. Cell. Biochem. 207:7-13.

[6] = test system: NADH oxidase of normal sera; test: NADH oxidase (NOX) activity of pooled sera of normal volunteers; type: biochemical, human
Procedure: as §2, §1, §3

tTIP [7] = test: Direct assay of tTIP activity of HeLa plasma membranes with DTNA substrate; type: biochemical, human; settings: no antibody
[8] = cells incubated in 0.1 M sodium acetate, pH 5, 2 h
[9] = cells incubated in PBS, pH 7, 2 h

Km (tTIP [7])	SMILES	ability of HeLa plasma membrane vesicles to oxidize NADH (in words) [1]	NADH oxidase activity, 1 μM capsaicin [2, 8]	NADH oxidase activity, 100 μM capsaicin [2, 8]	NADH oxidase activity, 1 μM capsaicin [2, 9]	NADH oxidase activity, 100 μM capsaicin [2, 9]	Supernatant activity, 1 μM capsaicin (tNOX [3]; 1 μM capsaicin)	Supernatant activity, 100 μM capsaicin (tNOX [3]; 100 μM capsaicin)	NOX activity of sera, +1 μM Cap (tNOX [4]; 1 μM capsaicin)	NOX activity of sera, + μM Cap (tNOX [4]; capsaicin (concentration not given))	Capsaicin inhibition (tTIP [5])	NADH oxidation by pooled sera from normal patients (in words) ([6]; capsaicin 1 to 100 μM)	NOX activity of sera, +1 μM Cap ([6]; normal sera, no MAB, 1 μM capsaicin)	NOX activity of sera, + μM Cap ([6]; normal sera, no MAB, capsaicin (concentration not given))	VMAX (tTIP [7]; estimated)
–	COc1cc(CNC(=O)CCCC/C=C/C(C)C)ccc1O [capsaicin, 8-methyl-N-vanillyl-6-noneamide]	partially inhibited	0.2 ± 0.01 nmoles/min/mg plasma membrane protein	0.15 ± 0.02 nmoles/min/mg plasma membrane protein	0.2 ± 0.02 nmoles/min/mg plasma membrane protein	0.2 ± 0.02 nmoles/min/mg plasma membrane protein	0.6 ± 0.4 nmoles/min/100 μl serum	0.5 nmoles/min/100 μl serum	1.0 ± 0.13	1.0 ± 0.17	−0.6	not inhibited	0.7 ± 0.14	0.7 ± 0.16	–
–	Cc1ccc(S(=O)(=O)NC(=O)Nc2ccc(Cl)cc2)cc1 [LY181984]	partially inhibited	–	–	–	–	–	–	–	–	–	–	–	–	–
1500 µM	O=C(O)c1ccc(SSc2ccc(C(=O)O)cn2)nc1 [DTNA, 6,6′-dithionicotinic acid]	–	–	–	–	–	–	–	–	–	–	–	–	–	1.5 nmoles/min/mg protein

Source: patent publication US7053188B2, “Monoclonal antibodies specific for neoplasia-specific NADH:disulfide reductase” (Purdue Research Foundation, priority 2002, dated 2006)
